# PubChem BioAssay (NCI)
#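 All cell lines were grown in 96-well plates and treated with compound for 48 hours. GI50 = concentration required for 50% inhibition of growth. At the TGI there is no net growth.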
# What was measured:
# Assay in all cases: inhibition of tumour cell growth, NCI panel, 48 h
# [1] = test system: T-47D breast
# [2] = test system: OVCAR-4 ovarian
# [3] = test system: NCI-H522 lung
# [4] = test system: SN12C renal
# [5] = test system: UACC-257 melanoma
# [6] = test system: LOX IMVI melanoma
# [7] = test system: A498 renal
# [8] = test system: RXF 393 renal
# [9] = test system: HOP-62 NSCLC
# [10] = test system: HS 578T breast
# [11] = test system: BT-549 breast
# [12] = test system: 786-0 renal
# [13] = test system: CCRF-CEM leukemia
# [14] = test system: MOLT-4 leukemia
# [15] = test system: COLO 205 colon
# [16] = test system: OVCAR-8 ovarian
# [17] = test system: SF-268 CNS
# [18] = test system: HCC-2998 colon
# [19] = test system: SK-OV-3 ovarian
# [20] = test system: HCT-116 colon
# [21] = test system: UACC-62 melanoma
# [22] = test system: MDA-MB-435
# [23] = test system: IGROV1 ovarian
# [24] = test system: SF-295 CNS
# [25] = test system: TK-10 renal
# [26] = test system: OVCAR-5 ovarian
# [27] = test system: NCI/ADR-RES ovarian
# [28] = test system: SNB-75 CNS
# [29] = test system: NCI-H226 lung
# [30] = test system: EKVX NSCLC
# [31] = test system: NCI-H460 lung
# [32] = test system: HT29 colon
# [33] = test system: SF-539 CNS
# [34] = test system: PC-3 prostate
# [35] = test system: MALME-3M melanoma
# [36] = test system: SK-MEL-2 melanoma
# [37] = test system: SNB-19 CNS
# [38] = test system: UO-31 renal
# [39] = test system: CAKI-1 renal
# [40] = test system: MCF7 breast
# [41] = test system: MDA-MB-231 breast
# [42] = test system: SK-MEL-5 melanoma
# [43] = test system: HCT-15 colon
# [44] = test system: RPMI-8226 leukemia
# [45] = test system: KM12 colon
# [46] = test system: K-562 leukemia
# [47] = test system: M14 melanoma
# [48] = test system: SW-620 colon
# [49] = test system: NCI-H23 lung
# [50] = test system: A549 NSCLC
# [51] = test system: HL-60(TB) leukemia
# [52] = test system: DU-145 prostate
# [53] = test system: HOP-92 NSCLC
# [54] = test system: U251 CNS
# [55] = test system: ACHN renal
# [56] = test system: OVCAR-3 ovarian
# [57] = test system: SK-MEL-28 melanoma
structure (smiles),measurement,setting,value
CN(C)CCNc1c2c(c(NCCN(C)C)c3c(CN(C)C)c[nH]c13)C(=O)c1ccccc1C2=O,GI50,[1],22.3 µM
same,TGI,[1],46.8 µM
same,GI50,[2],8.23 µM
same,TGI,[2],34.1 µM
same,GI50,[3],3.39 µM
same,TGI,[3],18.7 µM
same,GI50,[4],1.18 µM
same,TGI,[4],7.32 µM
same,GI50,[5],9.15 µM
same,TGI,[5],> 27.4 µM
same,GI50,[6],1.05 µM
same,TGI,[6],2.73 µM
same,GI50,[7],18.7 µM
same,TGI,[7],33.6 µM
same,GI50,[8],3.71 µM
same,TGI,[8],19.5 µM
same,GI50,[9],0.946 µM
same,TGI,[9],11.9 µM
same,GI50,[10],7.49 µM
same,TGI,[10],19 µM
same,GI50,[11],18.2 µM
same,TGI,[11],36.9 µM
same,GI50,[12],0.356 µM
same,TGI,[12],8.91 µM
same,GI50,[13],0.639 µM
same,TGI,[13],2.58 µM
same,GI50,[14],0.582 µM
same,TGI,[14],> 38.1 µM
same,GI50,[15],13.6 µM
same,TGI,[15],> 53.8 µM
same,GI50,[16],2.16 µM
same,TGI,[16],14.2 µM
same,GI50,[17],5.39 µM
same,TGI,[17],22.1 µM
same,GI50,[18],2.14 µM
same,TGI,[18],8.61 µM
same,GI50,[19],17.4 µM
same,TGI,[19],40.2 µM
same,GI50,[20],0.676 µM
same,TGI,[20],> 100 µM
same,GI50,[21],14.7 µM
same,TGI,[21],29.9 µM
same,GI50,[22],2.75 µM
same,TGI,[22],8.04 µM
same,GI50,[23],2.22 µM
same,TGI,[23],11.7 µM
same,GI50,[24],3.14 µM
same,TGI,[24],9.83 µM
same,GI50,[25],2.08 µM
same,TGI,[25],7.06 µM
same,GI50,[26],16 µM
same,TGI,[26],34.6 µM
same,GI50,[27],4.53 µM
same,TGI,[27],20.5 µM
same,GI50,[28],19.2 µM
same,TGI,[28],40.9 µM
same,GI50,[29],15 µM
same,TGI,[29],35.5 µM
same,GI50,[30],4.31 µM
same,TGI,[30],17.3 µM
same,GI50,[31],2.2 µM
same,TGI,[31],9.49 µM
same,GI50,[32],2.56 µM
same,TGI,[32],27.4 µM
same,GI50,[33],3.85 µM
same,TGI,[33],10.2 µM
same,GI50,[34],0.612 µM
same,TGI,[34],3.2 µM
same,GI50,[35],6.5 µM
same,TGI,[35],15.7 µM
same,GI50,[36],18.3 µM
same,TGI,[36],42.9 µM
same,GI50,[37],16.1 µM
same,TGI,[37],40 µM
same,GI50,[38],3.76 µM
same,TGI,[38],16.8 µM
same,GI50,[39],4.73 µM
same,TGI,[39],11.5 µM
same,GI50,[40],1.81 µM
same,TGI,[40],10 µM
same,GI50,[41],1.61 µM
same,TGI,[41],9.39 µM
same,GI50,[42],5.65 µM
same,TGI,[42],10.6 µM
same,GI50,[43],1.35 µM
same,TGI,[43],6.98 µM
same,GI50,[44],0.545 µM
same,TGI,[44],2.26 µM
same,GI50,[45],1.6 µM
same,TGI,[45],7.3 µM
same,GI50,[46],2.59 µM
same,TGI,[46],14.6 µM
same,GI50,[47],2.48 µM
same,TGI,[47],7.57 µM
same,GI50,[48],2.7 µM
same,TGI,[48],9.72 µM
same,GI50,[49],3.91 µM
same,TGI,[49],14.6 µM
same,GI50,[50],2.88 µM
same,TGI,[50],9.98 µM
same,GI50,[51],3.02 µM
same,TGI,[51],7.48 µM
same,GI50,[52],4.2 µM
same,TGI,[52],15.1 µM
same,GI50,[53],2.91 µM
same,TGI,[53],15.8 µM
same,GI50,[54],2.57 µM
same,TGI,[54],10.4 µM
same,GI50,[55],1.15 µM
same,TGI,[55],5.88 µM
same,GI50,[56],4.29 µM
same,TGI,[56],23.9 µM
same,GI50,[57],16.7 µM
same,TGI,[57],38.2 µM
N#Cc1cc(-c2ccnc(Nc3ccc(NC(=O)CCl)cc3)n2)ccc1N1CCCC1,GI50,[1],5.1 µM
same,TGI,[1],11 µM
same,GI50,[2],3.49 µM
same,TGI,[2],10.5 µM
same,GI50,[3],0.378 µM
same,TGI,[3],0.831 µM
same,GI50,[4],0.818 µM
same,TGI,[4],4.59 µM
same,GI50,[5],5.04 µM
same,TGI,[5],11.6 µM
same,GI50,[6],0.45 µM
same,TGI,[6],0.865 µM
same,GI50,[7],3.88 µM
same,TGI,[7],9.92 µM
same,GI50,[8],0.779 µM
same,TGI,[8],2.69 µM
same,GI50,[9],4.64 µM
same,TGI,[9],18.8 µM
same,GI50,[10],2.22 µM
same,TGI,[10],> 25 µM
same,GI50,[11],0.708 µM
same,TGI,[11],2.25 µM
same,GI50,[12],0.649 µM
same,TGI,[12],6.14 µM
same,GI50,[13],0.738 µM
same,TGI,[13],> 25 µM
same,GI50,[14],2.42 µM
same,TGI,[14],> 25 µM
same,GI50,[15],2.87 µM
same,TGI,[15],7.17 µM
same,GI50,[16],1.15 µM
same,TGI,[16],> 25 µM
same,GI50,[17],1.38 µM
same,TGI,[17],9.4 µM
same,GI50,[18],4.96 µM
same,TGI,[18],9.14 µM
same,GI50,[19],2.9 µM
same,TGI,[19],6.97 µM
same,GI50,[20],0.684 µM
same,TGI,[20],1.88 µM
same,GI50,[21],2.22 µM
same,TGI,[21],5.99 µM
same,GI50,[22],0.716 µM
same,TGI,[22],2.7 µM
same,GI50,[23],0.514 µM
same,TGI,[23],1.18 µM
same,GI50,[24],5.11 µM
same,TGI,[24],13.9 µM
same,GI50,[25],0.894 µM
same,TGI,[25],3.48 µM
same,GI50,[26],5.4 µM
same,TGI,[26],12.7 µM
same,GI50,[27],1.14 µM
same,TGI,[27],> 25 µM
same,GI50,[28],1.12 µM
same,TGI,[28],7.72 µM
same,GI50,[29],0.723 µM
same,TGI,[29],1.66 µM
same,GI50,[30],22.6 µM
same,TGI,[30],> 25 µM
same,GI50,[31],2.04 µM
same,TGI,[31],6.4 µM
same,GI50,[32],0.68 µM
same,TGI,[32],4.8 µM
same,GI50,[33],2.81 µM
same,TGI,[33],5.9 µM
same,GI50,[34],2.68 µM
same,TGI,[34],13.9 µM
same,GI50,[35],1.47 µM
same,TGI,[35],6.05 µM
same,GI50,[36],0.933 µM
same,TGI,[36],2.92 µM
same,GI50,[37],4.87 µM
same,TGI,[37],16.7 µM
same,GI50,[38],1.07 µM
same,TGI,[38],4.29 µM
same,GI50,[39],0.875 µM
same,TGI,[39],6.77 µM
same,GI50,[40],0.809 µM
same,TGI,[40],3.64 µM
same,GI50,[41],2.82 µM
same,TGI,[41],10.1 µM
same,GI50,[42],1.08 µM
same,TGI,[42],3.72 µM
same,GI50,[43],0.734 µM
same,TGI,[43],3 µM
same,GI50,[44],1.7 µM
same,TGI,[44],22.7 µM
same,GI50,[45],3.84 µM
same,TGI,[45],10.2 µM
same,GI50,[46],0.711 µM
same,TGI,[46],> 25 µM
same,GI50,[47],0.646 µM
same,TGI,[47],1.49 µM
same,GI50,[48],0.815 µM
same,TGI,[48],2.63 µM
same,GI50,[49],0.878 µM
same,TGI,[49],3.72 µM
same,GI50,[50],5.27 µM
same,TGI,[50],14.7 µM
same,GI50,[51],5.1 µM
same,TGI,[51],> 25 µM
same,GI50,[52],4.17 µM
same,TGI,[52],16.5 µM
same,GI50,[53],4.22 µM
same,TGI,[53],> 25 µM
same,GI50,[54],3.35 µM
same,TGI,[54],8.09 µM
same,GI50,[55],1.86 µM
same,TGI,[55],6.6 µM
same,GI50,[56],2.9 µM
same,TGI,[56],7.59 µM
same,GI50,[57],4.28 µM
same,TGI,[57],8.54 µM
